In paper PMC10607366 (International Journal of Molecular Sciences, 2023):
Structures can show the parent of a compound that is named as a salt.

Experiments:
[1] = tested on: H1N1 A/Netherlands/602/2009 (N09); assay: microbe, parasite or virus in culture; type: cell-based, Influenza A virus; conditions: for inhibition at 10 µM: Influenza A virus, H1N1, A549, 48 h; for Inhibition (%): 10 µM
[2] = tested on: clinical influenza A strain (H1N1); type: cell-based, Influenza A virus
[3] = tested on: H1N1 A/Netherlands/602/2009 (N09); type: cell-based, Influenza A virus
[4] = tested on: H1N1 A/Netherlands/602/2009 (N09); type: cell-based, Influenza A virus; remark: listed apart in the source
[5] = tested on: H1N1 A/Netherlands/602/2009 (N09); type: cell-based, Influenza A virus; remark: listed apart in the source
in vitro = conditions: dog
[6] = tested on: H1N1 A/Netherlands/602/2009 (N09); assay: microbe, parasite or virus in culture; conditions: Influenza A virus, H1N1, A549, 48 h
[7] = tested on: H1N1 A/Netherlands/602/2009 (N09); conditions: 10 µM
[8] = tested on: H1N1 A/Netherlands/602/2009 (N09); assay: microbe, parasite or virus in culture; type: cell-based; conditions: Influenza A virus, H1N1, MDCK, read-out: EC50 (95% CI)
influenza virus = conditions: cited from earlier work

Row | Compound | inhibition at 10 µM [1] | CC50 (in vitro) | viability at 10 µM [6] | EC50 [8] | also measured
1 | CC/C(=C(/CC)c1ccc(O)cc1)c1ccc(O)cc1 [Diethylstilbestrol] | 114% | 9.81 µM | 72% |  | Reduction of viral load [2]: more than one log; Inhibition, pre-treatment [3]: good inhibition; Potency when added post-infection [3]: potency of the compound was lost; Attachment of the virus [4]: not inhibited; Viral RNA replication [5]: inhibited; Inhibition of SARS-CoV-2 (SARS-CoV-2 B.1.1.7): did not inhibit; Toxicity in Mucilair tissues (MucilAir tissues): absence of toxicity
2 | CCN(CCCc1ccccc1)CCCc1ccccc1.O=C(O)CC(O)(CC(=O)O)C(=O)O [Alverine citrate salt] |  |  |  |  | Inhibition (%) [1]: 99%; Viability (%) [7]: 145%
3 | Oc1ccc(/C=C/c2cc(O)cc(O)c2)cc1 [Resveratrol] |  | 52 µM |  | > 10 µM | Reported inhibition of influenza (influenza virus): inhibit influenza
4 | OC(CCN1CCCC1)(c1ccccc1)C1CCCCC1 (stereo not drawn) [Procyclidine hydrochloride] | 97% |  | 91% |  | 
5 | C=C[C@@](C)(/C=C/c1ccc(O)cc1)CCC=C(C)C [Bakuchiol] |  |  |  | 0.94 µM | Reported inhibition of influenza virus (influenza virus): inhibit influenza virus; CC50 at 24 h (in vitro): 46.2 µM
6 | CCN(CC)CCNC(C(=O)OCCC(C)C)c1ccccc1.Cl.Cl (stereo not drawn) [Camylofine chlorhydrate] |  |  |  |  | Inhibition (%) [1]: 97%; Viability (%) [7]: 97%
7 | COc1ccc2c(c1)[C@]13CCCC[C@@H]1[C@H](C2)N(C)CC3 [Dextromethorphan hydrobromide monohydrate] | 100% |  | 103% |  | 
8 | C/C=C(/C(=C/C)c1ccc(O)cc1)c1ccc(O)cc1 [Dienestrol] |  | 32.6 µM |  | 3.13 µM | 
9 | C[C@H](Cc1ccc(O)c(O)c1)[C@@H](C)Cc1ccc(O)c(O)c1 [Masoprocol] |  | 84.9 µM |  | > 10 µM | 
10 | CC[C@H](c1ccc(O)cc1)[C@@H](CC)c1ccc(O)cc1 [Hexestrol] |  | 46.9 µM |  | 0.14 µM | 
